In patent US8586611B2 (priority 2005, dated 2013):

Key:
Format in all cases: in vivo
Plasmopara viticola = assay: Test B: grape downy mildew, spray 24 h after inoculation (disease rating, 100 = 100% disease control); conditions: sprayed 24 h after inoculation
Summary of the method: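 Grape seedlings were inoculated with Plasmopara viticola and held 24 h saturated at 20 °C, then sprayed to run-off with compound suspension (acetone/water with 250 ppm Trem 014; 200 ppm ≈ 500 g/ha). After 5 days at 20 °C and 24 h saturation, disease was rated from 0 to 100% control versus untreated.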

Phytophthora infestans [1] = assay: whole plant or invertebrate; conditions: tomato late blight, sprayed the day before inoculation
Phytophthora infestans [2] = assay: whole plant or invertebrate; conditions: tomato late blight, sprayed 17 h after inoculation
[3] = test system: Erysiphe graminis f. sp. tritici; assay: Test E: wheat powdery mildew, spray the day before inoculation (disease rating, 100 = 100% disease control); conditions: sprayed the day before inoculation, 7 days at 20° C.
Summary of the method: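 Wheat seedlings sprayed to run-off with compound suspended in acetone/water 50/50 with 250 ppm Trem 014 (200 ppm equivalent to 500 g/ha); inoculated next day with Erysiphe graminis f. sp. tritici spore dust. Kept 7 days at 20° C, then rated 0–100% disease control versus controls.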

[4] = unmarked compounds (no asterisk, not 40 or 10 ppm)

Compound | Test B disease rating (100 = 100% disease control, 0 = no disease control) (Plasmopara viticola; [4]) | Test C disease rating (100 = 100% disease control, 0 = no disease control) (Phytophthora infestans [1]; [4]) | Test D disease rating (100 = 100% disease control, 0 = no disease control) (Phytophthora infestans [2]; [4]) | Test E disease rating (100 = 100% disease control, 0 = no disease control) [3, 4] | Test B disease rating (100 = 100% disease control, 0 = no disease control) (Plasmopara viticola; tested at 10 ppm (**)) | Test C disease rating (100 = 100% disease control, 0 = no disease control) (Phytophthora infestans [1]; tested at 10 ppm (**)) | Test D disease rating (100 = 100% disease control, 0 = no disease control) (Phytophthora infestans [2]; tested at 10 ppm (**)) | Test E disease rating (100 = 100% disease control, 0 = no disease control) ([3]; tested at 10 ppm (**))
CCCN(C(=O)c1csc(C2CCN(C(=O)Cc3cc(C)ccc3C)CC2)n1)[C@H](C)c1ccccc1 [compound 287] | 0 | 50 | 0 | 0 |  |  |  | 
Cc1cc(C(F)(F)F)nn1CC(=O)N1CCC(c2nc(C(=O)N3CCCC3c3ccc(Cl)cc3)cs2)CC1 (stereo not shown) [compound 290] | 0 | 90 | 26 | 0 |  |  |  | 
Cc1cc(C(F)(F)F)nn1CC(=O)N1C(C)CN(c2nc(C(=O)N(C)[C@@H]3CCCc4ccccc43)cs2)CC1C (stereo partly shown) [compound 292] | 71 | 100 | 93 | 0 |  |  |  | 
Cc1cc(C(F)(F)F)nn1CC(=O)N1CCN(c2nc(C(=O)N(C)[C@@H]3CCCc4ccccc43)cs2)CC1C (stereo partly shown) [compound 293] | 100 | 100 | 99 | 0 |  |  |  | 
Cc1cc(C(F)(F)F)nn1CC(=O)N1CCC(c2nc(C(=O)NC3CCCc4ccccc43)cs2)CC1 (stereo not shown) [compound 294] | 99 | 100 | 96 | 0 |  |  |  | 
Cc1cc(C(F)(F)F)nn1CC(=O)N1CCC(c2nc(C(=O)N3Cc4ccccc4C3)cs2)CC1 [compound 295] | 39 | 95 | 39 | 0 |  |  |  | 
Cc1cc(C(F)(F)F)nn1CC(=O)N1CCC(c2nc(C(=O)N3CCc4ccccc4C3)cs2)CC1 [compound 296] | 82 | 100 | 93 | 0 |  |  |  | 
COc1cc2c(cc1OC)CN(C(=O)c1csc(C3CCN(C(=O)Cn4nc(C(F)(F)F)cc4C)CC3)n1)CC2 [compound 297] | 39 | 63 | 33 | 0 |  |  |  | 
Cc1cc(C(F)(F)F)nn1CC(=O)N1CCC(c2nc(C(=O)N3Cc4ccccc4C3C)cs2)CC1 (stereo not shown) [compound 298] |  |  |  |  | 57 | 80 | 0 | 0
Cc1cc(C(F)(F)F)nn1CC(=O)N1CCC(c2nc(C(=O)N3CCC4CCCCC4C3)cs2)CC1 (stereo not shown) [compound 299] | 83 | 99 | 96 | 0 |  |  |  | 
Cc1cc(C(F)(F)F)nn1CC(=O)N1CCC(c2nc(C(=O)N3CCCC4CCCCC43)cs2)CC1 (stereo not shown) [compound 300] | 62 | 97 | 58 | 0 |  |  |  | 
Cc1cc(C(F)(F)F)nn1CC(=O)N1CCC(c2nc(C(=O)N3CCCCC3)cs2)CC1 [compound 307] | 79 | 100 | 26 | 0 |  |  |  | 
Cc1cc(C(F)(F)F)nn1CC(=O)N1CCC(c2nc(C(=O)N3CCC(C)CC3)cs2)CC1 [compound 308] | 98 | 100 | 93 | 0 |  |  |  | 
Cc1cc(C(F)(F)F)nn1CC(=O)N1CCC(c2nc(C(=O)N3CCC(C)(C)CC3)cs2)CC1 [compound 309] | 96 | 100 | 83 | 0 |  |  |  | 
Cc1cc(C(F)(F)F)nn1CC(=O)N1CCC(c2nc(C(=O)N3CC=CCC3)cs2)CC1 [compound 310] | 47 | 73 | 9 | 0 |  |  |  | 
Cc1cc(C(F)(F)F)nn1CC(=O)N1CCC(c2nc(C(=O)N3CC=C(c4ccccc4)CC3)cs2)CC1 [compound 311] | 31 | 83 | 0 | 28 |  |  |  | 
Cc1cc(C(F)(F)F)nn1CC(=O)N1CCC(c2nc(C(=O)N3CCCC(C)C3)cs2)CC1 (stereo not shown) [compound 312] | 91 | 100 | 80 | 0 |  |  |  | 
Cc1cc(C(F)(F)F)nn1CC(=O)N1CCC(c2nc(C(=O)N3CCCC(C)(C)C3)cs2)CC1 [compound 313] | 98 | 99 | 92 | 0 |  |  |  | 
Cc1cc(C(F)(F)F)nn1CC(=O)N1CCC(c2nc(C(=O)NCCc3ccccc3)cs2)CC1 [compound 314] | 98 | 100 | 99 | 0 |  |  |  | 
